Assay results published in patent US20110045083A1, “USE LARCH WOOD FOR TREATING INFLAMMATION” (priority 2007, published 2011).
Where “and” joins values, the source holds several entries; their conditions need not be identical. Equal entries are not always repeated. Entries after “also recorded” stand apart in the source; their conditions may differ. Where two headings read alike, the source gives them in different places.

Columns and labels:
COX-1 (purified PGHS-1) = biological target: T1, COX-1 (purified PGHS-1) (Ovis aries, UniProt P05979); assay: COX-1 assay, purified enzyme, PGE2 EIA; type: biochemical, ram; conditions: for inhibition at 50 µM: screening concentration 50 μM
T1 construct: purified PGHS-1 (COX-1) from ram seminal vesicles; purchased Cayman Chemical Company, Ann Arbor, Mich., USA; host or cells: ram seminal vesicles (tissue-purified)
T1 sequence (P05979 25-600): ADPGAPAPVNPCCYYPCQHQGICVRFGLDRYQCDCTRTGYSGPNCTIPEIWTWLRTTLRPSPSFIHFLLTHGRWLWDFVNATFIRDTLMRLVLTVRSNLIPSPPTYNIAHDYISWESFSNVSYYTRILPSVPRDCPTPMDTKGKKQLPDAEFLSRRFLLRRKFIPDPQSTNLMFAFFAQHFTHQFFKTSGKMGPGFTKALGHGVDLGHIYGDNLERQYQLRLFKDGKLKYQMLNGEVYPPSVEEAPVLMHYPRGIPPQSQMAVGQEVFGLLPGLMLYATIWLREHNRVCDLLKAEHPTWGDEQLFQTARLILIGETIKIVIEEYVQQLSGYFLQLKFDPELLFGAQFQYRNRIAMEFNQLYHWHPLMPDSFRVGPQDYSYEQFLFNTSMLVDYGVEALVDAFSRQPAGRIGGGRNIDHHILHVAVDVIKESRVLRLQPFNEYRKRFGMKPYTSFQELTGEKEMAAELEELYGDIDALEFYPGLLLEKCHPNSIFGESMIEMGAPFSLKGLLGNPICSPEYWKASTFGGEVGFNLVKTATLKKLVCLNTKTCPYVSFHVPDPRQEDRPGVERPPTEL
Experimental: (§1) Principle: The purified enzymes COX-1 and COX-2 are incubated with a defined concentration of test sample and arachidonic acid. After stopping the enzymatic reaction by addition of formic acid and dilution, the produced PGE2 is quantified by means of a PGE2 EIA kit.
(§2) Sample preparation: The test samples (extracts and pure compounds) are dissolved in ethanol. Extracts are tested in concentrations of 20 μg/ml for screening. Pure compounds are tested in concentrations of 50 μM for screening.
(§3) Incubation procedure: The assays are performed in a microtiter scale with purified PGHS-1 (COX-1) from ram seminal vesicles and purified PGHS-2 (COX-2) from sheep placental cotyledones (both: Cayman Chemical Company, Ann Arbor, Mich., USA). The incubation mixture consists of 180 μl 0.1 M TRIS/HCl-buffer (pH 8.0) (Roth, Karlsruhe, Germany), 5 μM hematin, (porcine, ICN, Aurora, Ohio, USA), 18 mM epinephrine hydrogen tartrate (Fluka, Buchs, Switzerland), 0.2 U of enzyme preparation and 50 μM Na2EDTA (only COX-2 assay, Titriplex III, Merck, Darmstadt, Germany). 10 μl of each test solution are added and the mixture is preincubated for 5 min at room temperature. The reaction is started by adding 10 μl of 5 μM arachidonic acid (Cayman Chemical Company) in EtOH p.a. and the reaction mixture is incubated at 37° C. The reaction is terminated after 20 min by addition of 10 μl of 10% formic acid.
(§4) PGE2 EIA: The concentration of PGE2, the main arachidonic acid metabolite in this reaction, is determined by a competitive PGE2 EIA kit (Assay Designs Inc., Ann Arbor, Mich., USA). All samples are diluted in EIA buffer. The EIA is incubated for 2 hours at room temperature on an orbital shaker. After a washing step, 200 μl of substrate solution are added to each well, and the EIA is incubated for 1 hour at room temperature. After addition of 50 μl stop solution, the EIA is evaluated photometrically by an ELISA microplate reader.
(§5) Inhibition of COX refers to reduction of PGE2 formation in comparison to a blank run without inhibitor. Inhibition values are means of at least 2 experiments and each sample is tested in duplicate. […] IC50 values of active samples were determined by testing at least 3 concentrations in 3 different experiments, in duplicate each. IC50 was calculated by logarithmic regression after graphical representation.

COX-2 (purified PGHS-2) = biological target: T2, COX-2 (purified PGHS-2) (Ovis aries, UniProt P79208); assay: COX-2 assay, purified enzyme, PGE2 EIA; type: biochemical, sheep; conditions: for inhibition at 50 µM: screening concentration 50 μM
T2 construct: purified PGHS-2 (COX-2) from sheep placental cotyledones; purchased Cayman Chemical Company, Ann Arbor, Mich., USA; host or cells: sheep placental cotyledons (tissue-purified)
T2 sequence (P79208 17-603): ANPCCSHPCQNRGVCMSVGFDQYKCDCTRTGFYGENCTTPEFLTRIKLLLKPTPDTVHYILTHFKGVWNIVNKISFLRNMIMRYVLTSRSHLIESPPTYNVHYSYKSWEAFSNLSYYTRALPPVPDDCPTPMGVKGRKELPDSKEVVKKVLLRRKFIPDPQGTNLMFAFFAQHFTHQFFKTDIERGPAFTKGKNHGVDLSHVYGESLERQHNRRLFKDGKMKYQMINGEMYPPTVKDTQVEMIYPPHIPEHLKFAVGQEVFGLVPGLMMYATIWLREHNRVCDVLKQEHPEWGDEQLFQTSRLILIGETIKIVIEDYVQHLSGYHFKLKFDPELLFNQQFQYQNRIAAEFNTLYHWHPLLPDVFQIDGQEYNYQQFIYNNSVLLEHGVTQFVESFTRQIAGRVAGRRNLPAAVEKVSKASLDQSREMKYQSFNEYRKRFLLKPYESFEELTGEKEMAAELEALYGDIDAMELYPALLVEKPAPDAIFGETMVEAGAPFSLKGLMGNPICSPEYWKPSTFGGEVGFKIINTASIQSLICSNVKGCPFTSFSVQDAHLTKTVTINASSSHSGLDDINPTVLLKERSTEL
Experimental: as §1, §2, §3, §4, §5

SMILES	IC50 COX-1 (COX-1 (purified PGHS-1))	inhibition at 50 µM (COX-1 (purified PGHS-1)) [%]	IC50 COX-2 (COX-2 (purified PGHS-2))	inhibition at 50 µM (COX-2 (purified PGHS-2)) [%]	IC50 COX-1 (COX-1 (purified PGHS-1); listed as palustric acid)	IC50 (COX-2 (purified PGHS-2); IC50 COX-2) [µM]	IC50 COX-1 (COX-1 (purified PGHS-1); listed as larixol)	IC50 COX-2 (COX-2 (purified PGHS-2); listed as larixol)	IC50 COX-1 (COX-1 (purified PGHS-1); listed as dehydroabietinol)	IC50 COX-2 (COX-2 (purified PGHS-2); listed as dehydroabietinol)	IC50 (COX-2 (purified PGHS-2); read-out: IC50 COX-2)
CC(C)c1ccc2c(c1)CCC1C(C)(C(=O)O)CCCC21C (stereo not drawn) [Dehydroabietic acid]	Inactive	2.9 ± 7.8	Inactive	-6 ± 9	–	–	–	–	–	–	–
CC(C)C1=CC2=C(CC1)C1(C)CCCC(C)(C(=O)O)C1CC2 (stereo not drawn) [Palustric acid]	Inactive	13.5 ± 4.7	–	49.5 ± 3.5	without inhibiting	57.9	–	–	–	–	–
C=CC(C)(O)CCC1C(=C)CC(O)C2C(C)(C)CCCC12C (stereo not drawn) [Larixol]	Inactive	2.1 ± 4.7	Inactive	8.7 ± 3.8	–	–	inactive	inactive	–	–	–
C=C[C@@]1(C)CC[C@H]2C(=CC[C@@H]3[C@]2(C)CCC[C@@]3(C)C(=O)O)C1 [Isopimaric acid]	without inhibiting; also recorded: Inactive	15.7 ± 7.1	without inhibiting; also recorded: Inactive	3.5 ± 6.2	–	–	–	–	–	–	–
CC(C)c1ccc2c(c1)CCC1C(C)(CO)CCCC21C (stereo not drawn) [Dehydroabietinol]	Inactive	-1.6 ± 4.6	Inactive	7.7 ± 8	–	–	–	–	inactive	inactive	–
C=CC(C)(O)CCC1C(=C)CC(OC(C)=O)C2C(C)(C)CCCC12C (stereo not drawn) [Larixyl acetate]	Inactive	0.2 ± 5.9	devoid of COX-2inhibitory activity	38.5 ± 5.9	–	–	–	–	–	–	95 µM and 95.1 µM
